Experimental data as given in ChEMBL document CHEMBL1201862, “PubChem BioAssay data set” (2004).
Calls of active or inactive are those of the source.

Assays:
[1] = molecular target: T1, Mucolipin-3 (Homo sapiens, UniProt Q8TDD5); experiment: Dose response cell-based high-throughput screening assay for agonists of the transient receptor potential channel ML3 (TRPML3). [Related pubchem assays: 1526, 1424, 1448 ]; type: functional
T1 sequence (Q8TDD5 whole entry): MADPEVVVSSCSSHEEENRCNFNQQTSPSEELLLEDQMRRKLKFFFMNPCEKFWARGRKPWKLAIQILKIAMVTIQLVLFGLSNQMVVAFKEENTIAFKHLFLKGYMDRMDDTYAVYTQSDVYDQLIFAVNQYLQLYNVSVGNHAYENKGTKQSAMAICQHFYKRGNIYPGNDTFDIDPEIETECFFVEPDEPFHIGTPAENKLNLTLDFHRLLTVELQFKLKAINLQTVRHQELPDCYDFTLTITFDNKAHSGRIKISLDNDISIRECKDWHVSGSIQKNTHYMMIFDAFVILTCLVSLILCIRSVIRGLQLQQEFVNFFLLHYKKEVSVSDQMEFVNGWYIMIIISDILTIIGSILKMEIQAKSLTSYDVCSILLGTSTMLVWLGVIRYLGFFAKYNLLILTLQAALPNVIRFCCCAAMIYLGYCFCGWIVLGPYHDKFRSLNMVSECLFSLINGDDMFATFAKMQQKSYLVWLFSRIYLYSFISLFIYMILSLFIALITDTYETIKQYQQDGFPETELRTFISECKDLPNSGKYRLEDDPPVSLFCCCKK

[2] = molecular target: Ion channel NompC (Danio rerio, UniProt Q7T1G6); experiment: Fluorescence counterscreen assay for TRPML3 agonists: dose response cell-based high-throughput screening assay to identify agonists of the transient receptor potential channel N1 (TRPN1). [Related pubchem assays: 1526, 1424, 1448 ]; type: functional
Chain of Ion channel NompC (Q7T1G6 whole entry, the tested form may be a part): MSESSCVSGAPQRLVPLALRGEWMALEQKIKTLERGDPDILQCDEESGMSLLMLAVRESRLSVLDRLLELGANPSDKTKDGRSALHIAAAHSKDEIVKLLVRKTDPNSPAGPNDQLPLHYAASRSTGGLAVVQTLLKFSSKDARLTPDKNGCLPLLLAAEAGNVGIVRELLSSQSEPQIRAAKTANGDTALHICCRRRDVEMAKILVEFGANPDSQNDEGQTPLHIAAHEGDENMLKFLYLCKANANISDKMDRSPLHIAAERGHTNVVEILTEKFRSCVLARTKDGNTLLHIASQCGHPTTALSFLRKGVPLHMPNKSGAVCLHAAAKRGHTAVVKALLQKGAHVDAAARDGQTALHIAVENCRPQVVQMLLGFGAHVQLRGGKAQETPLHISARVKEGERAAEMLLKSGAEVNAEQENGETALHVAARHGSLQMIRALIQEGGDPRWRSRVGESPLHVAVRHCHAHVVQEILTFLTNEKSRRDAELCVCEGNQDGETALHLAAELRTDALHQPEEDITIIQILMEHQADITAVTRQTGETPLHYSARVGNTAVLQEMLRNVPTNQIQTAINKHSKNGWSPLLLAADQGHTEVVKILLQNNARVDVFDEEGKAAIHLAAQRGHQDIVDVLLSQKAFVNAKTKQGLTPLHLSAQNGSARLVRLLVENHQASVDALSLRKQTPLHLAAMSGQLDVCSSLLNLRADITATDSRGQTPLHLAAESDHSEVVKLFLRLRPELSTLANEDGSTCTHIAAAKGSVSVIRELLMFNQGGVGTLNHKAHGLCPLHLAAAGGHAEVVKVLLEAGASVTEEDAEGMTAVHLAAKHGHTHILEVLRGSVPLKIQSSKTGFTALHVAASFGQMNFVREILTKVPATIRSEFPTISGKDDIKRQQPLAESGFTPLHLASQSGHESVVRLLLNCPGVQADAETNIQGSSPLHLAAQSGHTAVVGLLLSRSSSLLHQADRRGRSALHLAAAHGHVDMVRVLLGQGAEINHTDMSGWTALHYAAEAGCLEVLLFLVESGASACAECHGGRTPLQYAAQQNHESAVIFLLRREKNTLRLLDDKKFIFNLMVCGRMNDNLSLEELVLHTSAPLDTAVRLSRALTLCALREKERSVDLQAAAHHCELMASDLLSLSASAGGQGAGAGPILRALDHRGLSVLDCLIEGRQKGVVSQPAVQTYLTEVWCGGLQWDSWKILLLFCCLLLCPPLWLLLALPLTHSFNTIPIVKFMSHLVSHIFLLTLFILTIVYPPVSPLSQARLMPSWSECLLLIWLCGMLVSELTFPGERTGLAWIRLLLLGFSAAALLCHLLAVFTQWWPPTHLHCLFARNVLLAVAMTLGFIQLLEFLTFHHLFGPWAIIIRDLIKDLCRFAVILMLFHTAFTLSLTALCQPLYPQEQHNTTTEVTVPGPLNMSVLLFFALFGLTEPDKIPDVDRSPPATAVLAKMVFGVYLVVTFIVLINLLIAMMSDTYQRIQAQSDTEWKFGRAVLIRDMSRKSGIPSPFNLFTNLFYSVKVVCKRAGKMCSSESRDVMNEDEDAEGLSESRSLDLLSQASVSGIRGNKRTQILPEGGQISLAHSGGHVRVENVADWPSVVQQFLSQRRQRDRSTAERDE

[3] = molecular target: T2, Estrogen receptor (Homo sapiens, UniProt P03372); experiment: potentiators of ERα–SRC-1 coactivator binding, dose response, biochemical, TR-FRET, ERα LBD (AID 737)
T2 sequence (P03372 whole entry): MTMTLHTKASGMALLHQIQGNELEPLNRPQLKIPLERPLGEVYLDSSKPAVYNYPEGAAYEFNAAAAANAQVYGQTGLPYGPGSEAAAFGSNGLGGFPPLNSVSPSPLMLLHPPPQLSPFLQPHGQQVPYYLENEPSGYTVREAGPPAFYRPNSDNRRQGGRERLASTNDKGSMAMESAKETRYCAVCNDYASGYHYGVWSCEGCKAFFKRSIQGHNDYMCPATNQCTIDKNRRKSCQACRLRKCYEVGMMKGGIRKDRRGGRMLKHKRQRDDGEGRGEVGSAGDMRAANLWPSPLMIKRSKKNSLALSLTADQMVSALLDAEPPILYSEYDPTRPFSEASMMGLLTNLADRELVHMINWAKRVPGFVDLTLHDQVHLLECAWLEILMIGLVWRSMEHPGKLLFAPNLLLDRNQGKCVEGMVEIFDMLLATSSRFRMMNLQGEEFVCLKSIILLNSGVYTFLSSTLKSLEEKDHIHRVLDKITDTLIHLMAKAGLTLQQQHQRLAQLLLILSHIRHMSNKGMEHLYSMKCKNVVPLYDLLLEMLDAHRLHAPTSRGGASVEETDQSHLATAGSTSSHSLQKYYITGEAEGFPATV

[4] = molecular target: T3, NADPH oxidase 1 (Homo sapiens, UniProt Q9Y5S8); type: functional, cell-based;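 further: Cell-based assay with luminescence read-out, IC50 derived from inhibitor dose-response curves; intracellular ROS from endogenous NOX1 in intact HT29 colon cancer cells; potency of inhibitors that lower the ROS luminescence signal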
T3 sequence (Q9Y5S8 whole entry): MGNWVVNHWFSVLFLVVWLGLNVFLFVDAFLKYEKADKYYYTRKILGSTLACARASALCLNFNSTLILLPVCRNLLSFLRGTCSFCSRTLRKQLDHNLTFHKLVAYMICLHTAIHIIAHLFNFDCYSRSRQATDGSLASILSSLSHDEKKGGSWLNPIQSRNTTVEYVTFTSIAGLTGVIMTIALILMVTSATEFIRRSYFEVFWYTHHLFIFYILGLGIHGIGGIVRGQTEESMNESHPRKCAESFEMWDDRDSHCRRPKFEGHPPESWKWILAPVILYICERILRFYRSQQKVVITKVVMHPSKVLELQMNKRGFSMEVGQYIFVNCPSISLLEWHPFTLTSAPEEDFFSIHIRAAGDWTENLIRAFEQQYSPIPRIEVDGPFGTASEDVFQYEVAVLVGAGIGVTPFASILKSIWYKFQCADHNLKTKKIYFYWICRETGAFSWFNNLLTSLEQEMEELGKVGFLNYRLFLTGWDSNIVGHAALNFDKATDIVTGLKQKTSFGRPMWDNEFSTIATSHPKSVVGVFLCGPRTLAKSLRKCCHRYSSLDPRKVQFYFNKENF

[5] = molecular target: E3 ubiquitin-protein ligase Mdm2 (Homo sapiens, UniProt Q00987); experiment: enhancers of MDM2-luciferase reporter signal, concentration-effect titration, project on inhibitors of MDM2 ubiquitin ligase, cellular assay, luminescent readout, 384-well plate format (AID 1394); type: functional;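 further: MDM2 E3 inhibitors raise luminescence so EC50 is for signal enhancement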
Chain of E3 ubiquitin-protein ligase Mdm2 (Q00987 whole entry): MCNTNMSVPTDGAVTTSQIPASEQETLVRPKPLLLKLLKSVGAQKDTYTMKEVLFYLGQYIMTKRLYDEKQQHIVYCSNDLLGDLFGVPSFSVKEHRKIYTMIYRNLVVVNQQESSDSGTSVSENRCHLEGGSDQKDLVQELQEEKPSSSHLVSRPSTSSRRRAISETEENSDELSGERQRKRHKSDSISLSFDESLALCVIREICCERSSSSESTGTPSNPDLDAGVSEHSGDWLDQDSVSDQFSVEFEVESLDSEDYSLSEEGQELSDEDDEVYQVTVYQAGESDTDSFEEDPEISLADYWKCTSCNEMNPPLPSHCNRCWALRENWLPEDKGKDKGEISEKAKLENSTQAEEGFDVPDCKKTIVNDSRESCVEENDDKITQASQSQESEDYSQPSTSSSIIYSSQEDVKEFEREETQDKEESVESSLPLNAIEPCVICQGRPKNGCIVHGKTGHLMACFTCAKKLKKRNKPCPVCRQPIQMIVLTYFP

[6] = Luminescent dose response cell-based high throughput screening assay for inhibitors of the Janus kinase 2 mutant JAK2V617F. [Related pubchem assays: 1446 (Primary screen.), 1521 (Confirmation assay.), 1486 (Counter screen.)]; type: functional
[7] = molecular target: Kallikrein-7 (Homo sapiens, UniProt P49862); experiment: Fluorescence Intensity-based biochemical primary high throughput dose response assay to identify activators of kallikrein-7 (K7) zymogen.
Chain of Kallikrein-7 (P49862 whole entry): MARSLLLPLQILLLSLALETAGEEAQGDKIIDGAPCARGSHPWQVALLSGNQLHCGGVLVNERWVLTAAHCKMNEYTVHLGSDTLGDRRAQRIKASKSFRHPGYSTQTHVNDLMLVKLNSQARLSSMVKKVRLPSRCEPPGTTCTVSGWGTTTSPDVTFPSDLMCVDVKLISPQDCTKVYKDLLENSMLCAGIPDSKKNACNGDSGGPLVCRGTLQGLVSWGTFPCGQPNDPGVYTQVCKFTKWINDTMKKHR

[8] = enhancers of respiration in Yfh1-depleted yeast, dose response, Friedreich's ataxia, plus single-dose screen (AID 1465); type: functional;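 further: yeast depleted of Yfh1p frataxin homolog grown on glycerol needing respiration; WST-1 tetrazolium dye reduction as measure of cellular dehydrogenase metabolic activity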
[9] = molecular target: Large T antigen (Simian virus 40, UniProt P03070); type: functional, Betapolyomavirus macacae;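 further: Confirmatory-stage PubChem screen for compounds that inhibit SV40 T antigen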
Chain of Large T antigen (P03070 whole entry): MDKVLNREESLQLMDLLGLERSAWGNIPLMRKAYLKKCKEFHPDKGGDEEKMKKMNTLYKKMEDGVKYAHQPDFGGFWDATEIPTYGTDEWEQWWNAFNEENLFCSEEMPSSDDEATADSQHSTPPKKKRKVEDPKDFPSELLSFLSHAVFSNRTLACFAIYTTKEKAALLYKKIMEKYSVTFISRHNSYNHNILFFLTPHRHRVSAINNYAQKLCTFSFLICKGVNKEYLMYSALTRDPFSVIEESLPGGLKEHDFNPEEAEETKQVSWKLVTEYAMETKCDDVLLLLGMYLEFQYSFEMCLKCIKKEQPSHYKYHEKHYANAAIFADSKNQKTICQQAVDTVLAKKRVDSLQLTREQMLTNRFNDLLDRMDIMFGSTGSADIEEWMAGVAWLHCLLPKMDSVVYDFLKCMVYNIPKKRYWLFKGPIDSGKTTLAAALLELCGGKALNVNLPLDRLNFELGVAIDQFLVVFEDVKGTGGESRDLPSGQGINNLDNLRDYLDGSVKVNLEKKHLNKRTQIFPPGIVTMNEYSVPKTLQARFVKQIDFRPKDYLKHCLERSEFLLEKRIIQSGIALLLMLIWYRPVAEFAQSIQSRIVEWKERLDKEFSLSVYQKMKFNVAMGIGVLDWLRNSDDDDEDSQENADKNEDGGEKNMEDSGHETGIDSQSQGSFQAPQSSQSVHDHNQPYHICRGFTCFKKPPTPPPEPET

[10] = molecular target: T4, Zinc finger protein mex-5 (Caenorhabditis elegans, UniProt Q9XUB2); experiment: MEX-5/TCR-2 RNA interaction inhibitors, dose response, biochemical, C. elegans, fluorescence polarization (AID 1960)
T4 sequence (Q9XUB2 whole entry): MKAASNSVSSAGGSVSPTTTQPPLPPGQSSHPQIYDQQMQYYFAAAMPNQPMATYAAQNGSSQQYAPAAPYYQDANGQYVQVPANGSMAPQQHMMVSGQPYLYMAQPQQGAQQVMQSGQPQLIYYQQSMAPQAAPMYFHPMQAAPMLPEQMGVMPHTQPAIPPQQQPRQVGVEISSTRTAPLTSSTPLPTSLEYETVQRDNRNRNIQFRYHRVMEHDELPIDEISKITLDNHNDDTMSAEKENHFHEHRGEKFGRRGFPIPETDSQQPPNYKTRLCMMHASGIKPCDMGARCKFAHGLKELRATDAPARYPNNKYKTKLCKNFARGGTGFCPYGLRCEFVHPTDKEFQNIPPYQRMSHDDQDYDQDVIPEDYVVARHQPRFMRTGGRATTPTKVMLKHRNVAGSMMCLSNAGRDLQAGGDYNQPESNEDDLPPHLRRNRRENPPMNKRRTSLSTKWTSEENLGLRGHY

[11] = molecular target: T5, RNA-binding protein pos-1 (Caenorhabditis elegans, UniProt G5EF15); experiment: inhibitors of POS-1/mex-3 RNA binding, dose response, biochemical, fluorescence polarization (AID 1964);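 further: purified POS-1 fused to maltose binding protein made in E. coli; potency of compounds blocking POS-1 binding to fluorescent RNA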
T5 sequence (G5EF15 whole entry): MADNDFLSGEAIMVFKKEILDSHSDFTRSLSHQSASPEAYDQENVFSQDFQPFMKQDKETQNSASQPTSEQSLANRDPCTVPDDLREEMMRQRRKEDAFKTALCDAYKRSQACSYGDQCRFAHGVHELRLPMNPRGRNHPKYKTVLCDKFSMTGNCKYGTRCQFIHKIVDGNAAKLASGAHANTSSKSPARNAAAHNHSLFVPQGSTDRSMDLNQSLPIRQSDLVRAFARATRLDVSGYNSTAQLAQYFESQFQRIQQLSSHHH

[12] = M. tuberculosis growth inhibition, HTS (AID 449762); type: functional
[13] = HEp-2 cell cytotoxicity, dose response, cytotoxicity control for RSV inhibitor project, HTS (AID 2410); type: functional; details: human respiratory syncytial virus
[14] = molecular target: T2, Estrogen receptor
[15] = molecular target: T6, Estrogen receptor beta (Homo sapiens, UniProt Q92731);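 further: recombinant ER-beta bound to coactivator SRC1 peptide in presence of estradiol agonist; inhibitors block coactivator peptide binding and lower the FRET signal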
T6 sequence (Q92731 whole entry): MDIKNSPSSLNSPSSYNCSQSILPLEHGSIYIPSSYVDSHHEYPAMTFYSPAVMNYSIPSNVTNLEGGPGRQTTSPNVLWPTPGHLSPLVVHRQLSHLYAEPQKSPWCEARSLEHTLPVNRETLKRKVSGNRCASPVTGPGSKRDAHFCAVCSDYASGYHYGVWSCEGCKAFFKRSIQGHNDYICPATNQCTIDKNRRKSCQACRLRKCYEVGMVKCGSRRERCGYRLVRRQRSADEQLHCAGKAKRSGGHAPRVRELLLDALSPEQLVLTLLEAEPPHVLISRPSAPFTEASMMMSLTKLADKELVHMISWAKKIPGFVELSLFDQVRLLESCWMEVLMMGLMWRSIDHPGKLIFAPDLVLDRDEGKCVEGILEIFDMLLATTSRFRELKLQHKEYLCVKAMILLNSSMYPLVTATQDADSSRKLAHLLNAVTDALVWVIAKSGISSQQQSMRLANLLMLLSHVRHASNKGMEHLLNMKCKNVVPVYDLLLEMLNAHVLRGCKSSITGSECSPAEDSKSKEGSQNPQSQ

[16] = molecular target: T6, Estrogen receptor beta; experiment: ERβ–SRC-3 coactivator interaction inhibitors, confirmation, orthogonal assay, biochemical, ELISA, streptavidin-HRP readout (AID 1060)
[17] = molecular target: T7, Mannose-6-phosphate isomerase (Homo sapiens, UniProt P34949); experiment: human PMI inhibitors, high substrate, primary screen, biochemical, fluorescence intensity, high mannose 6-phosphate (AID 1220)
T7 sequence (P34949 whole entry): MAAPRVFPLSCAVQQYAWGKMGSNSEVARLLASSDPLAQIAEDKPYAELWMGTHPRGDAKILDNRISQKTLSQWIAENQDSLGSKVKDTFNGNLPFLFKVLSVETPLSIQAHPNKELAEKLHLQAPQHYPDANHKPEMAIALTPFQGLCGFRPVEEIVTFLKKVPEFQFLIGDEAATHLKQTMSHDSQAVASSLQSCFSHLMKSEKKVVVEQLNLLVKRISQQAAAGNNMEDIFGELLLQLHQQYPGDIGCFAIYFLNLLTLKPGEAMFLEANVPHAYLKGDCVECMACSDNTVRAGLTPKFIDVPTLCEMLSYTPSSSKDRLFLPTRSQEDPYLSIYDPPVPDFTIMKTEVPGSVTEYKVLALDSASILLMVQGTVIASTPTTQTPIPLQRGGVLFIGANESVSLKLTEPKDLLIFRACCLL

[18] = molecular target: T8, Histone-lysine N-methyltransferase NSD2 (Homo sapiens, UniProt O96028); type: biochemical
T8 sequence (O96028 whole entry): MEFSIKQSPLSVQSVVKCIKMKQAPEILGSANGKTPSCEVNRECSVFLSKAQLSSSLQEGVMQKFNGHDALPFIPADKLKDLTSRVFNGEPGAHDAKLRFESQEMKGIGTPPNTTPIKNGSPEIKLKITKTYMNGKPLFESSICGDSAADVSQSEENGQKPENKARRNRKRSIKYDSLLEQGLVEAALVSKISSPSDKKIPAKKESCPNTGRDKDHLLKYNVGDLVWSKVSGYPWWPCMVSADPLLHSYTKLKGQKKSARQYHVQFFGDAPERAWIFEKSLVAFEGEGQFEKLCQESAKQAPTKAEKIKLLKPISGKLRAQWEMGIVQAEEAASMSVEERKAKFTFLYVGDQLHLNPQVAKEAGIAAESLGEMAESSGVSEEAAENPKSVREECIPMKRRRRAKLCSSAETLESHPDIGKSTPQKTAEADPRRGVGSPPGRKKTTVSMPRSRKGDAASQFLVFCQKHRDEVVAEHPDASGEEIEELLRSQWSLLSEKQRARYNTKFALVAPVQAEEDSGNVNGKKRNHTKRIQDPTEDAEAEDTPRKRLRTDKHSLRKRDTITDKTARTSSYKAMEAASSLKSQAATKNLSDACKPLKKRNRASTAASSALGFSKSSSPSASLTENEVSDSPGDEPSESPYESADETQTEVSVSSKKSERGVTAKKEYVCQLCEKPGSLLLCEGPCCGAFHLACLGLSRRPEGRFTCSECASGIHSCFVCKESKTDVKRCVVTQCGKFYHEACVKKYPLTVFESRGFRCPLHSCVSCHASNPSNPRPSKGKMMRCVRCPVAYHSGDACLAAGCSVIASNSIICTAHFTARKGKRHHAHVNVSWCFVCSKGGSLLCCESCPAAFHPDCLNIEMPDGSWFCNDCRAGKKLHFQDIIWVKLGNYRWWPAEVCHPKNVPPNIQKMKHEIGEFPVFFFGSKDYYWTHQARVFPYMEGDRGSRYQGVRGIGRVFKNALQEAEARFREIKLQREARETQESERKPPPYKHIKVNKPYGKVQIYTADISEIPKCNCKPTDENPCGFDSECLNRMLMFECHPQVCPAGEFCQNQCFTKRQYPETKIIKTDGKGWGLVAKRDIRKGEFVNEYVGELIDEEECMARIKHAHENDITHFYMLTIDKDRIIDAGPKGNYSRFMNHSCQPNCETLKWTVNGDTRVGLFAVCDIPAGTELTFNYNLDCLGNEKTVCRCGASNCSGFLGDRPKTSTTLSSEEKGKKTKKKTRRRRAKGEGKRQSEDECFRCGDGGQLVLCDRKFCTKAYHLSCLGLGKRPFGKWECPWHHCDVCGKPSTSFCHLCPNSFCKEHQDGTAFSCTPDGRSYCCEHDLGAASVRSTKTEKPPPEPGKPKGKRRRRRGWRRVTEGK

COC(=O)C1(C(C[N+](=O)[O-])c2ccco2)C(=O)NCC1c1ccccc1 (centres undefined)
EC50 [1]: 7.77 µM (active) | EC50 [2]: > 29.9 µM (not active)

COc1cc(NC(=O)c2cc3c(=O)n(C)c4ccccc4c3n2C)cc(OC)c1OC
EC50 [3]: 12.9 µM (not active)

O=C(Nc1ccc(Cl)cc1)Nc1ccc(Oc2ccccc2)cc1
IC50 [4]: > 17 µM (not active)

COc1ccc(S(=O)(=O)NN(C)c2ncc(C(F)(F)F)cc2Cl)cc1
EC50 [5]: 0.38 µM (not active)

O=C(Nc1cccc2c1[nH]c1ccccc12)C(F)(F)F
IC50 [6]: 2.48 µM (active) | EC50 [7]: 31.8 µM (inactive)

CC1(OC(=O)CCc2ccccc2)C(=O)C=C2C=C(c3ccc(C#N)cc3)N(Cc3ccco3)C=C2C1=O (centres undefined)
EC50 [8]: > 100 µM (active)

COc1ccccc1N1C(=O)NC(=O)/C(=C/c2ccc([N+](=O)[O-])s2)C1=O
IC50 [9]: > 100 µM (active) | EC50 [10]: 23 µM (active) | EC50 [11]: 44.1 µM (active) | IC50 [12]: > 100 µM (active)

Cc1ccc(S(=O)(=O)N2CCc3ccccc3C2CN2C(=O)c3ccccc3C2=O)cc1 (centres undefined)
CC50 [13]: 45.1 µM (active) | EC50 [1]: > 29.9 µM (not active) | EC50 [2]: > 29.9 µM (not active)

O=C(NCc1ccco1)c1cc2c(s1)CSC2
IC50 [14]: 9.41 µM (active) | IC50 [15]: 7.85 µM (active) | IC50 [16]: 0.0368 µM (not active)

COc1ccccc1N=C(S)Nc1cccc2cnccc12
IC50 [17]: > 50 µM (not active) | AC50 [18]: 10.1 µM (active)

C1CCC(c2nn3c(-c4[nH]nc5c4CCC5)nnc3s2)CC1
IC50 [14]: > 50 µM (not active) | IC50 [15]: 10.2 µM (active) | IC50 [16]: > 50 µM (not active)

CC(=O)Nc1ccccc1OC(=O)c1sc2ccccc2c1Cl
IC50 [4]: > 17 µM (not active)
